Measurements taken from ChEMBL document CHEMBL6109146, “Discovery of New Pyrazolone Carbothioamide Derivatives as Potent Antifungal Agents for the Treatment of Candidiasis and Cryptococcosis” (J Med Chem, 2025).
Calls of active or inactive are those of the source. The calls are words filed in the database; no cut-off is given here.

Key:
[1] = system: Candida albicans; experiment: Antifungal activity against Candida albicans SC5314 assessed as inhibition of fungal growth incubated for 48 to 72 hrs by microplate reader analysis; assay type: functional, organism-based; details: time 48-72 hrs
[2] = system: Nakaseomyces glabratus; experiment: Antifungal activity against Candida glabrata 0161 assessed as inhibition of fungal growth incubated for 48 to 72 hrs by microplate reader analysis; assay type: functional; details: time 48-72 hrs
[3] = system: Nakaseomyces glabratus; experiment: Antifungal activity against Candida glabrata 9256 assessed as inhibition of fungal growth incubated for 48 to 72 hrs by microplate reader analysis; assay type: functional; details: time 48-72 hrs
[4] = system: [Candida] auris; experiment: Antifungal activity against Candida auris 0030 assessed as inhibition of fungal growth incubated for 48 to 72 hrs by microplate reader analysis; assay type: functional, organism-based; details: Candidozyma auris, time 48-72 hrs
[5] = system: [Candida] auris; experiment: Antifungal activity against Candida auris 0029 assessed as inhibition of fungal growth incubated for 48 to 72 hrs by microplate reader analysis; assay type: functional, organism-based; details: Candidozyma auris, time 48-72 hrs
[6] = system: Cryptococcus neoformans; experiment: Antifungal activity against Cryptococcus neoformans HN-68 assessed as inhibition of fungal growth incubated for 48 to 72 hrs by microplate reader analysis; assay type: functional; details: time 48-72 hrs
[7] = system: Cryptococcus neoformans; experiment: Antifungal activity against Cryptococcus neoformans H99 assessed as inhibition of fungal growth incubated for 48 to 72 hrs by microplate reader analysis; assay type: functional; details: time 48-72 hrs
[8] = system: Cryptococcus gattii; experiment: Antifungal activity against Cryptococcus gattii 01063P assessed as inhibition of fungal growth incubated for 48 to 72 hrs by microplate reader analysis; assay type: functional; details: time 48-72 hrs
[9] = system: Candida albicans; experiment: Antifungal activity against Candida albicans 9296 assessed as inhibition of fungal growth incubated for 48 to 72 hrs by microplate reader analysis; assay type: functional, organism-based; details: time 48-72 hrs
[10] = system: Nakaseomyces glabratus; experiment: Antifungal activity against Candida glabrata 8535 assessed as inhibition of fungal growth incubated for 48 to 72 hrs by microplate reader analysis; assay type: functional; details: time 48-72 hrs
[11] = system: Candida albicans; experiment: Antifungal activity against Candida albicans 103 assessed as inhibition of fungal growth incubated for 48 to 72 hrs by microplate reader analysis; assay type: functional, organism-based; details: time 48-72 hrs
[12] = system: [Candida] auris; experiment: Antifungal activity against Candida auris 15448 assessed as inhibition of fungal growth incubated for 48 to 72 hrs by microplate reader analysis; assay type: functional, organism-based; details: Candidozyma auris, time 48-72 hrs
[13] = system: Cryptococcus neoformans; experiment: Antifungal activity against Cryptococcus neoformans 011409 assessed as inhibition of fungal growth incubated for 48 to 72 hrs by microplate reader analysis; assay type: functional; details: time 48-72 hrs
[14] = system: Cryptococcus neoformans; experiment: Inhibition of matured biofilm in Cryptococcus neoformans H99 at 2 to 32 microg/ml incubated for 24 hrs by XTT reagent based assay; assay type: functional, organism-based; details: dose 2-32 µg/ml
[15] = system: Cryptococcus neoformans; experiment: Induction of morphological changes in Cryptococcus neoformans H99 assessed as nuclei damage at 4 microg/ml incubated for 8 hrs by transmission electron microscopic analysis; assay type: functional, organism-based; details: dose 4.0 µg/ml
[16] = system: Cryptococcus neoformans; experiment: Inhibition of urease production in Cryptococcus neoformans H99 at 0.031 to 1 microg/ml by photographic analysis relative to control; assay type: functional; details: dose 0.031-1 µg/ml
[17] = system: Cryptococcus neoformans; experiment: Antifungal activity against Cryptococcus neoformans H99 assessed as inhibition of fungal growth in presence of Fe(III) ions; assay type: functional
[18] = system: Cryptococcus neoformans; experiment: Inhibition of biofilm formation in Cryptococcus neoformans H99 at 32 microg/ml incubated for 24 hrs by XTT reagent based assay relative to control; assay type: functional
[19] = system: Cryptococcus neoformans; experiment: Induction of morphological changes in Cryptococcus neoformans H99 assessed as cell wall damage at 4 microg/ml incubated for 8 hrs by transmission electron microscopic analysis; assay type: functional, organism-based; details: dose 4.0 µg/ml
[20] = system: Cryptococcus neoformans; experiment: Effect on intracellular free iron ions level in Cryptococcus neoformans H99 at 4 microg/ml incubated for 24 hrs by absorbance based analysis; assay type: functional, cell-based; details: dose 4.0 µg/ml
[21] = system: Cryptococcus neoformans; experiment: Antifungal activity against Cryptococcus neoformans H99 assessed as inhibition of fungal growth in presence of Fe(II) ions; assay type: functional
[22] = system: Nakaseomyces glabratus; experiment: Fungicidal activity against Candida glabrata 0161 at 32 microg/ml incubated for 48 hrs by time-kill kinetics analysis; assay type: functional, organism-based; details: dose 32.0 µg/ml
[23] = system: Cryptococcus neoformans; experiment: Antifungal activity against Cryptococcus neoformans H99 assessed as inhibition of fungal growth in presence of 10% serum containing transferrin-bound ferric iron and free iron; assay type: functional
[24] = system: Cryptococcus neoformans; experiment: Inhibition of capsule formation in Cryptococcus neoformans H99 at 32 microg/ml incubated for 24 hrs by light microscopic analysis; assay type: functional, organism-based; details: dose 32.0 µg/ml
[25] = system: Cryptococcus neoformans; experiment: Induction of ROS accumulation in Cryptococcus neoformans H99 assessed as increase in intracellular ROS level by measuring intense green fluorescence at 4 microg/ml incubated for 24 hrs by DCFH-DA probe based fluorescence microscopic analysis; assay type: functional, organism-based; details: dose 4.0 µg/ml
[26] = system: Nakaseomyces glabratus; experiment: Inhibition of matured biofilm in Candida glabrata 0161 at 2 to 32 microg/ml incubated for 24 hrs by XTT reagent based assay; assay type: functional, organism-based; details: dose 2-32 µg/ml
[27] = system: Cryptococcus neoformans; experiment: Induction of morphological changes in Cryptococcus neoformans H99 assessed as organelle damage at 4 microg/ml incubated for 8 hrs by transmission electron microscopic analysis; assay type: functional, organism-based; details: dose 4.0 µg/ml
[28] = system: Cryptococcus neoformans; experiment: Inhibition of melanin production in Cryptococcus neoformans H99 at 0.031 to 1 microg/ml by photographic analysis relative to control; assay type: functional, organism-based; details: dose 0.031-1 µg/ml
[29] = system: Cryptococcus neoformans; experiment: (§1) Antifungal activity against Cryptococcus neoformans H99 infected in cryptococcosis female ICR mouse model assessed as reduction in cysts formation in brain cortex at 20 mg/kg, ip pre-infected with fungi for 3 hrs followed by compound administration and measured after 5 days by H and E staining based analysis; assay type: functional, organism-based; details: time 5.0 day
[30] = system: Cryptococcus neoformans; experiment: Induction of oxidative damage in Cryptococcus neoformans H99 assessed as increase in MDA level at 4 microg/ml incubated for 24 hrs relative to control; assay type: functional; details: dose 4.0 µg/ml
[31] = system: Cryptococcus neoformans; experiment: as §1, with “pyknosis” for “cysts formation”, “neuronal nuclei by measuring reduction in staining” for “brain cortex”; assay type: functional, organism-based; details: time 5.0 day

Compound	Activity [1]	Activity [2]	Activity [3]	Activity [4]	Activity [5]	Activity [6]	Activity [7]	Activity [8]	Activity [9]	Activity [10]	Activity [11]	Activity [12]	Activity [13]	also measured
CCc1ccc(NC(=S)n2[nH]c(N)cc2=O)cc1	Active	Active	Active	Active	Active	Active	Active	Active	Active	Active	Active	Active	Active	–
OC(Cn1cncn1)(Cn1cncn1)c1ccc(F)cc1F [FLUCONAZOLE]	–	–	–	–	–	–	–	–	–	–	–	–	–	inhibition [14]: inactive; Activity [15]: inactive; inhibition [16]: inactive; MIC [17]: 2 µg/mL; inhibition at 32 µg/mL [18]: 17%; Activity [19]: inactive; Activity [20]: inactive; MIC [21]: 2 µg/mL; Activity [22]: inactive; MIC [23]: 2 µg/mL; inhibition [24]: inactive; Activity [25]: inactive; inhibition [26]: Moderate_effect; Activity [27]: inactive; inhibition [28]: inactive; Activity [29]: inactive; Activity [30]: inactive; Activity [31]: inactive
CCCCCCCCc1ccc(NC(=S)n2[nH]c(N)cc2=O)cc1	Active	Active	Active	Active	Active	Active	Active	Active	Active	Active	Active	Active	Active	–
S=C(Nc1ccc(C2CCCCC2)cc1)Nc1cc[nH]n1	inactive	inactive	inactive	inactive	inactive	inactive	inactive	inactive	inactive	inactive	inactive	inactive	inactive	–
CCc1ccc(NC(=O)n2[nH]c(N)cc2=O)cc1	inactive	inactive	inactive	inactive	inactive	inactive	inactive	inactive	inactive	inactive	inactive	inactive	inactive	–
Nc1cc(=O)n(C(=S)Nc2ccc(C(F)(F)F)cc2)[nH]1	Not active; Compound Demonstrated Reduced Activity Compared To Lead Compound 1	Active	Active	Not active; Compound Demonstrated Reduced Activity Compared To Lead Compound 1	Not active; Compound Demonstrated Reduced Activity Compared To Lead Compound 1	Not active; Compound Demonstrated Reduced Activity Compared To Lead Compound 1	Not active; Compound Demonstrated Reduced Activity Compared To Lead Compound 1	Not active; Compound Demonstrated Reduced Activity Compared To Lead Compound 1	Not active; Compound Demonstrated Reduced Activity Compared To Lead Compound 1	Active	Not active; Compound Demonstrated Reduced Activity Compared To Lead Compound 1	Not active; Compound Demonstrated Reduced Activity Compared To Lead Compound 1	Not active; Compound Demonstrated Reduced Activity Compared To Lead Compound 1	–
